US6077871A, “Droloxifene pharmaceutical compositions” (Pfizer Inc., priority 1998, dated 2000)
Structures can show the parent of a compound that is named as a salt. Where two headings read alike, the source gives them in different places.

Legend:
[1] = Stability of droloxifene out of light / in light-protected solutions; assay type: physicochemical
Excerpt: The results in Table 2 (below) show a stability enhancement of droloxifene with the inclusion of cyclodextrins. The concentration of cyclodextrin that results in the greatest stabilizing effect depends on the efficiency of the formation of the droloxifene-cyclodextrin inclusion complex, that is, the stability constant, as well as the initial concentration of droloxifene present. […] This stability improvement is further useful for preconstituted aqueous solutions which must have a long practical shelf-life, e.g., 2 years, even if packaged in a partially light-protected package. […] While not wishing to be held to any theory, it is believed that incorporation of droloxifene in the cyclodextrin cavity minimizes a cis-trans isomerization reaction, thus reducing the formation of the isomeric decay product and resulting in an overall stability improvement.

[2] = pH 3
Experimental: The solubility of droloxifene citrate was determined in an aqueous phosphate buffer at pH 3, without and with various levels of cyclodextrins. Solubility testing of droloxifene citrate in solutions of the cydodextrins, SBECD and HPBCD, was conducted using an equilibrium solubility method. The following protocol was employed for the solubility determination.
Separate 0.02 M aqueous buffer solutions of phosphoric acid (H3 PO4) and 0.02 M dibasic sodium phosphate (Na2 HPO4) were prepared by dissolving 2.25 gm and 2.84 gm, respectively, into separate one liter portions of deionized water and stirring with a magnetic stir bar until dissolved. To obtain a pH 3 buffer, the two previous buffers were combined, at an approximate ratio of 2:1 (H3 PO4 buffer:Na2 HPO4 buffer). The final volume of the resulting pH 3 buffer was not critical.
To 25 mL volumetric flasks, weights of either HPBCD or SBECD were added to produce final concentrations of each cyclodextrin shown in Table 1. For example, to prepare a 2% w/v solution of HPBCD in pH 3 phosphate buffer, 0.5 gm of HPBCD was accurately added to a 25 mL volumetric flask. […]
To 5 mL glass vials with screw caps, 3 mL of the desired cyclodextrin solution was added. […] The contents were filtered into a clean screw cap vial through a Millex-HV 0.45 μm filter (Millipore, Bedford, Mass.) and the drug concentration determined by an HPLC method. […]

[3] = pH 3, 30° C., 840 footcandle fluorescent light
Experimental: The stability of droloxifene citrate was determined at pH 3 with various concentrations of SBECD and HPBCD. For this protocol, the 0.02 M sodium phosphate buffer of pH 3 and the cyclodextrin solutions were prepared as for the droloxifene solubility determination described previously. 10 mL of each cyclodextrin solution was added to an 18 mL clear glass vial with screw cap which contained a previously weighed amount of droloxifene citrate. The vials were swirled until dissolution of droloxifene citrate was complete. The concentration of droloxifene citrate ranged from 0.05-0.1 mgA/mL. Concentrations of HPBCD included 0.2, 2, 4, 7 and 10% w/v. Concentrations of SBECD included 0.33 and 3.3% w/v. The vials were stored in an 840 footcandle fluorescent light box at 30° C. The solutions were removed briefly from time to time to allow drug concentration determination using the HPLC method described as for the solubility determination.

stability out of light ([1]; out of light vs in light) | Decay Rate Constant ([3]; 0.2% HPBCD) [h⁻¹] | Time Required for 1% Decay ([3]; 0.2% HPBCD) [h] | Decay Rate Constant ([3]; 0.33% SBECD) [h⁻¹] | Time Required for 1% Decay ([3]; 0.33% SBECD) [h] | Decay Rate Constant ([3]; 2% HPBCD) [h⁻¹] | Time Required for 1% Decay ([3]; 2% HPBCD) [h] | Decay Rate Constant ([3]; 3.3% SBECD) [h⁻¹] | Time Required for 1% Decay ([3]; 3.3% SBECD) [h] | Decay Rate Constant ([3]; no cyclodextrin) [h⁻¹] | Time Required for 1% Decay ([3]; no cyclodextrin) [h] | SMILES | stability in light-protected solutions ([1]; light-protected solutions with beta-cyclodextrins present) | solubility with cyclodextrin [2]
significantly more stable out of light |  |  |  |  |  |  |  |  |  |  | CC/C(=C(/c1ccc(OCCN(C)C)cc1)c1cccc(O)c1)c1ccccc1 [droloxifene, 1-[4'-(2-dimethylaminoethoxy)phenyl]-1-(3'-hydroxyphenyl)-2-phenylbut-1-ene] | an improvement in stability is also observed | 
 | 0.0094 | 1.1 | 0.0090 | 1.1 | 0.0030 | 3.3 | 0.0070 | 1.4 | 0.0123 | 0.8 | CC/C(=C(/c1ccc(OCCN(C)C)cc1)c1cccc(O)c1)c1ccccc1 [droloxifene citrate] |  | enhancement of droloxifene citrate solubility with cyclodextrin
